Measurements reported in patent US9447028B2, “Therapeutic aryl-amido-aryl compounds and their use” (King's College London, priority 2009, dated 2016).

Key:
Type in all cases: cell-based
RARα = biological target: T1, RARα (Homo sapiens, UniProt P10276); assay: Transactivation assay for RAR alpha (gal4-RAR fusion, luciferase reporter, COS-7 cells); details: for Improvement (RARα activity ratio) / Improvement (RARα/RARβ ratio): compared with XXX-03; for RARα/RARβ ratio (*): fold-selectivity for RARα over RARβ; for RARα activity ratio: ratio of test compound EC50 to that of atRA on the same plate
T1 construct: gal4 (fusion partner); expressed in transfected cells; host or cells: COS-7
T1 sequence (P10276 183-417 limits assumed): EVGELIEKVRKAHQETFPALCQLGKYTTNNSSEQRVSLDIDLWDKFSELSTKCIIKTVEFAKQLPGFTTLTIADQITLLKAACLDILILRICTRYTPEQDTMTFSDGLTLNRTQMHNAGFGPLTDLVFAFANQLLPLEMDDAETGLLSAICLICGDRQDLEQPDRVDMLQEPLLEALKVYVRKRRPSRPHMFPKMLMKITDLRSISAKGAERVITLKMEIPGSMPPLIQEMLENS
Description: (§1) Transcriptional transactivation assays were performed with gal4 fusion receptor constructs, created using each of the RAR ligand binding domains, co-transfected with the pFR-luc (Stratagene™) reporter construct in COS-7 cells.
(§2) Briefly, on day 1, 96 well plates were seeded with 8000 cells per well then left to recover overnight. On day 2, the cells were co-transfected with 100 ng of reporter plasmid and 10 ng of the appropriate receptor plasmid per well using lipofectamine (Invitrogen™). On day 3, the lipofectamine containing media was replaced by a DMEM without phenol red, followed by the addition of test compound dissolved in 1 μL of DMSO to each well's 100 μL total volume. Finally, on day 4, the cells were lysed and their luciferase substrate was provided by the BrightGlo™ reagent (Promega™), the plates were then read on the MicroBeta TriLux™ (Perkin Elmer™).
(§3) Where replicate data has been generated, the data are quoted as a ratio of the mean EC50 from the separate experiments.

RARβ = biological target: T2, RARβ (Homo sapiens, UniProt P10826); assay: Transactivation assay for RAR beta (gal4-RAR fusion, luciferase reporter, COS-7 cells); details: ratio of test compound EC50 to that of atRA; inactive = no agonist action at the highest concentration tested
T2 construct: gal4 (fusion partner); expressed in transfected cells; host or cells: COS-7
T2 sequence (P10826 183-417 limits assumed): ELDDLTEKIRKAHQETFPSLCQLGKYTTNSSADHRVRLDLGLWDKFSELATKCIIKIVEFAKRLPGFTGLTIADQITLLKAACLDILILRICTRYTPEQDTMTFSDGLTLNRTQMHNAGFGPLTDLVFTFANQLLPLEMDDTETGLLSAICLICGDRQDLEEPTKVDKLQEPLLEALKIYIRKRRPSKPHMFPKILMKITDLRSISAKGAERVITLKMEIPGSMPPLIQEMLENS
Description: as §1, §2, §3

RARγ = biological target: T3, RARγ (Homo sapiens, UniProt P13631); assay: Transactivation assay for RAR gamma (gal4-RAR fusion, luciferase reporter, COS-7 cells); details: ratio of test compound EC50 to that of atRA; inactive = no agonist action at the highest concentration tested
T3 construct: gal4 (fusion partner); expressed in transfected cells; host or cells: COS-7
T3 sequence (P13631 185-419 limits assumed): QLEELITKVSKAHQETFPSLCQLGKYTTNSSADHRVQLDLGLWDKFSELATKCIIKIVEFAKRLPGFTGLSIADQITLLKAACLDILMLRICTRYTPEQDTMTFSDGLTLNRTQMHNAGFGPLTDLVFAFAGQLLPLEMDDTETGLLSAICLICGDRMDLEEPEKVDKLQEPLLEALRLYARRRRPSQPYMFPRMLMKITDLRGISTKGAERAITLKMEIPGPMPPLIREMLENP
Description: as §1, §2, §3

Row | Structure (SMILES) | Improvement (RARα activity ratio) (RARα) | Improvement (RARα/RARβ ratio) (RARα) | RARβ activity ratio (RARβ) | RARγ activity ratio (RARγ) | RARα/RARβ ratio (*) (RARα) | RARα activity ratio (RARα)
1 | CCOc1c(Cl)cc(C(=O)Nc2ccc(C(=O)O)cc2)cc1Cl [AAA-029, 4-(3,5-Dichloro-4-ethoxy-benzoylamino)-benzoic acid] | ~3.8-fold | ~11-fold | 1920 | inactive | – | –
2 | COc1c(Cl)cc(C(=O)Nc2ccc(C(=O)O)cc2)cc1Cl [AAA-030, 4-(3,5-Dichloro-4-methoxy-benzoylamino)-benzoic acid] | ~3.1-fold | ~46-fold | 9525 | 5850 | – | –
3 | CCOc1c(Cl)cc(C(=O)Nc2ccc(C(=O)O)c(C(F)(F)F)c2)cc1Cl [AAA-033, 4-(3,5-Dichloro-4-ethoxybenzamido)-2-(trifluoromethyl)benzoic acid] | – | – | 19 | 148 | 1.5 | 13
4 | CC(C)Oc1c(Cl)cc(C(=O)Nc2ccc(C(=O)O)cc2)cc1C(F)(F)F [AAA-034, 4-(3-Chloro-4-isopropoxy-5-(trifluoromethyl)benzamido)benzoic acid] | – | – | 244 | 1250 | 122 | 2
5 | COc1c(Cl)cc(C(=O)Nc2ccc(C(=O)O)cc2)cc1C(F)(F)F [AAA-035, 4-(3-Chloro-4-methoxy-5-(trifluoromethyl)benzamido)benzoic acid] | – | – | 2620 | 87000 | 8700 | 0.30
6 | O=C(O)c1ccc(NC(=O)c2cc(Cl)c(OC3CCC3)c(C(F)(F)F)c2)cc1 [AAA-036, 4-(3-Chloro-4-cyclobutoxy-5-(trifluoromethyl)benzamido)benzoic acid] | – | – | 215 | 2438 | 31 | 7.0
7 | CC(C)(C)Oc1c(Cl)cc(C(=O)Nc2ccc(C(=O)O)cc2)cc1C(F)(F)F [AAA-037, 4-(4-(tert-Butoxy)-3-chloro-5-(trifluoromethyl)benzamido)benzoic acid] | – | – | 324 | >2600 | 1300 | 0.25
8 | Cc1cc(NC(=O)c2cc(Cl)c(OC(C)(C)C)c(C(F)(F)F)c2)ccc1C(=O)O [AAA-038, 4-(4-(tert-Butoxy)-3-chloro-5-(trifluoromethyl)benzamido)-2-methylbenzoic acid] | – | – | 49 | 0.36 | 98 | 0.50
9 | CCOc1c(Cl)cc(C(=O)Nc2ccc(C(=O)O)c(C)c2)cc1C(F)(F)F [AAA-039, 4-(3-Chloro-4-ethoxy-5-(trifluoromethyl)benzamido)-2-methylbenzoic acid] | – | – | 177 | 2985 | 59 | 3.0
10 | Cc1cc(NC(=O)c2cc(Cl)c(OC(C)C)c(C(F)(F)F)c2)ccc1C(=O)O [AAA-040, 4-(3-Chloro-4-isopropoxy-5-(trifluoromethyl)benzamido)-2-methylbenzoic acid] | – | – | 60 | 194 | 55 | 1.1
11 | COc1c(Cl)cc(C(=O)Nc2ccc(C(=O)O)c(C)c2)cc1C(F)(F)F [AAA-041, 4-(3-Chloro-4-methoxy-5-(trifluoromethyl)benzamido)-2-methylbenzoic acid] | – | – | 238 | 31340 | 44 | 5.4
12 | CCOc1c(Br)cc(C(=O)Nc2ccc(C(=O)O)cc2)cc1C(F)(F)F [AAA-042, 4-(3-Bromo-4-ethoxy-5-(trifluoromethyl)benzamido)benzoic acid] | – | – | 369 | 6000 | 68 | 5.4
